This is an account of results in US12661347B2 (Dr. Falk Pharma GmbH, priority 2020, dated 2026).

Molecules are shown by their SMILES. Read-outs that look alike come from different tables or passages of the source.

One data set addresses T1, TG2 (Homo sapiens, UniProt P21980).
T1 sequence (P21980 1-687): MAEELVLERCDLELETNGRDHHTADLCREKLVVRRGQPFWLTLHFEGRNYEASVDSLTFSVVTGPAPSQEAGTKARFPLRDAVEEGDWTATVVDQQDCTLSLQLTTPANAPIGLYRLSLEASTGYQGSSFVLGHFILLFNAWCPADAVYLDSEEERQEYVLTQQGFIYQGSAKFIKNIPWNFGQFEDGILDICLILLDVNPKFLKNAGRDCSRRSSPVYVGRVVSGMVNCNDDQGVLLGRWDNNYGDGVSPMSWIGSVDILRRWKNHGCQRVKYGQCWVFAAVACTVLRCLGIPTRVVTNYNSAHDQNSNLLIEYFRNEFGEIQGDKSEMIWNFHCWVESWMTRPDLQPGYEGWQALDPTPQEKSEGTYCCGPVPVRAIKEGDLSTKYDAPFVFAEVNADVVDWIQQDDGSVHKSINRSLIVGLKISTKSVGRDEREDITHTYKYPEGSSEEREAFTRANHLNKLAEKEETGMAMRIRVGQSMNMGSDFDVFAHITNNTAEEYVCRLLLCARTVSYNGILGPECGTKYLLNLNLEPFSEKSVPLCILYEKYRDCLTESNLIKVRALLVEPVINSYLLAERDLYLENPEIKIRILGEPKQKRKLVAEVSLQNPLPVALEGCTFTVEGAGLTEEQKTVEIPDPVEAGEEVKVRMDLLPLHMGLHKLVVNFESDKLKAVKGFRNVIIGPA
The experiment in a line: Correlation of human pharmacokinetic data with in vitro TG2 inhibition (TG2-mediated deamidation of gluten). The text has this:
For the estimation of the therapeutic effective human dose, the drug concentration determined in vivo is compared with the drug concentrations resulting in an inhibition of the enzyme activity of TG2 in vitro (FIG. 2). Thereby, the TG2-mediated deamidation of gluten serves as a marker reaction. […] The 90% inhibition at IC90 can be regarded as maximal pharmacodynamic effect.

The nature of data set [1]: Pharmacokinetic after oral administration of the systemic formulation in healthy volunteers (plasma, HPLC-MS/MS). The data set is classed as in vivo, human. How it is done:
The pharmacokinetic of (S,E)-methyl-7-(1-(2-(2-ethylbutylamino)-2-oxoethyl)-2-oxo-1,2-dihydro-pyridin-3-ylamino)-6-(1-methyl-1H-imidazole-5-carboxamido)-7-oxohept-2-enoate (compound of formula (I)) was investigated in healthy volunteers. Cohorts of 18 subjects each were treated with an oral daily dose of 10, 20, 50 and 100 mg compound of formula (I), respectively over a time period of 7 days.
The determination of said compound in blood plasma was performed by means of a previously validated HPLC-MS/MS method.

Data set [2] is described as follows: Side effects in humans at doses of up to 500 mg. The data set is classed as in vivo. How it is done:
Moreover, side effects related to potential off-target actions were not observed in humans even at doses of up to 500 mg. As aforementioned, this is particularly surprising due to the fact that TG2 is ubiquitously expressed in almost all cell types and cell compartments, it is present on the cell surface and gets secreted to the extracellular matrix, and is present in various organs, and thus it could be envisioned that off-target effects would be most likely.

Data set [3] can be described thus: Saturation solubility in the pH-range 1 to 6.8 (HPLC/UV). The data set is classed as physicochemical.
The nature of data set [4]: Comparison of Cmax of the formulation (human) with the plain compound (animals), doses as human-equivalent-dose. It counts as in vivo, human; monkeys, pigs, rabbits, rats and mice. The following applies: formulation in human vs drug as suspension in animals. How it is done:
Due to regulatory and ethical reasons pharmacokinetic data with the plain compound were only generated in animals but not in human subjects. The pharmacokinetic data of the plain compound were derived from several studies in monkeys, pigs, rabbits, rats and mice. In all studies the compound was administered orally after suspension in 0.5% (w/v) methylcellulose in water, pH 5±0.5. Blood samples were taken at various time points within 24 h after drug administration and quantified by means of a previously validated HPLC-MS/MS method. […] In order to compile the data from different species, doses were converted into human-equivalent-dose (HED) taking into account differences in the body surface area between species. The widely accepted species-specific conversion factors defined in the FDA guideline “Estimating the Maximum Safe Starting Dose in Initial Clinical Trials for Therapeutics in Adult Healthy Volunteers” (Issue date 2005) were used.

The target in data set [5] is T2, small intestinal tissue transglutaminase (TG2) (Mus musculus, UniProt P21981).
T2 construct: from tissue; host or cells: small intestine (jejunum) and colon of the treated animals
T2 sequence (P21981 1-686): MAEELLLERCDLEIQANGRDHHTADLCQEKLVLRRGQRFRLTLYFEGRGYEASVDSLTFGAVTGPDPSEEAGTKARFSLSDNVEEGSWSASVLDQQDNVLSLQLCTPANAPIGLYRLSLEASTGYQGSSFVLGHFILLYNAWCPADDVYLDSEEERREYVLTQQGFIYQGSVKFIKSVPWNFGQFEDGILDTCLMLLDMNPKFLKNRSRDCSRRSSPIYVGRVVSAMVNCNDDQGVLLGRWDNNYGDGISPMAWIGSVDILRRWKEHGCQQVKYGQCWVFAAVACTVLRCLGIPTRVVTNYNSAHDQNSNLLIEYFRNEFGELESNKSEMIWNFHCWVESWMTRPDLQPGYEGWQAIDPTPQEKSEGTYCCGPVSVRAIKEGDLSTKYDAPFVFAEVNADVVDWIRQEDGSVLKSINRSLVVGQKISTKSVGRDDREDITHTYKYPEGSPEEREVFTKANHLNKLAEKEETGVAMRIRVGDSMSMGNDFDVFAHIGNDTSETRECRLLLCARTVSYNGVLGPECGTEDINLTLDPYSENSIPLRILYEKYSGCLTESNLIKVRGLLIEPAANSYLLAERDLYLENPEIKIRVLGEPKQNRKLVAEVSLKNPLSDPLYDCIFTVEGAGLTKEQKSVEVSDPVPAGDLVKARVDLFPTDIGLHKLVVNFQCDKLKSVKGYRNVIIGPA
To be noted: plain, unformulated compound, cited from earlier work.

Data set [6] concerns adult patients with Celiac Disease (CeD). The experiment in a line: 6-week treatment of adult Celiac Disease patients challenged with 3 g daily gluten, placebo-controlled. It counts as in vivo, human. How it is done: Patients, who were in clinical and histological remission at start of the study were challenged with 3 grams daily gluten intake and randomized to receive placebo or one of 3 doses of the compound of formula (I), i.e. 10 mg, 50 mg or 100 mg.
Each morning after at least 6 hours of fasting, patients took the study drug orally, followed by one biscuit containing 3 g of gluten 30 minutes later, before breakfast. Throughout the 6-week study, patients were required to continue their strict gluten free diet.
The primary endpoint of the study was, whether the compound of formula (I) could prevent gluten-induced change in intestinal mucosal morphology. Before start (baseline) and after end of the 6 weeks of treatment endoscopies were conducted by an experienced gastroenterologist. Four endoscopy forceps biopsy samples with one biopsy bite per pass were taken from the second and third part of the duodenum and preserved in a PAXgene fixative containers. Tissue slides of the biopsies were scanned as whole-slide images and the villous height (VH) and crypt depth (CrD) in the mucosal samples were measured. In addition, the density of CD3+ intra-epithelial lymphocytes (IELs), an indicator of inflammation, was counted. Symptoms of CeD the patients were recorded by patient-reported outcomes (PROs) and measured by the Celiac Symptom Index (CSI) (Ref1) and Celiac Disease Questionnaire (CDQ) (Ref2).

The nature of data set [7]: Simulation of the gastrointestinal tract, transfer model (donor medium to FaSSIF acceptor medium). The data set is classed as physicochemical. On the procedure: The solubility of the dose as well as the dissolution velocity under physiological conditions are critical parameters for the oral availability at the target site.
The transfer model consists of a vessel with 125 ml donor medium and a vessel with 500 m acceptor medium. The donor medium is transferred by means of pump (Piston pump Sotax CP7) in the acceptor medium so that 625 ml liquid is present in the acceptor vessel at the end of the experiment. The transfer rate amounts 10 ml/min. The donor medium is an artificial gastric juice in a sober state, and contains 34.2 mM sodium chloride (NaCl) in 0.1 hydrogen chloride (HCl). The acceptor medium consists of artificial […] in a sober state (FaSSIF) and contains 3 mM sodium taurocholate, and […] lecithine in phosphate buffer with a pH-value of 6.5. The temperature of the acceptor medium is adjusted to 37.5° C.±0.5° C. For the simulation of the gastrointestine motility, the acceptor medium is stirred continuously with a stirring paddle (50 rpm). A calibrated stirring paddle apparatus 2 according to the conditions of the USP (Sotax AT7 Smart) as an acceptor vessel is used. In FIG. 5, a scheme of the apparatus is illustrated.
The capsule was added to the donor medium.

Consider `CCC(CC)CNC(=O)Cn1cccc(NC(=O)[C@H](CC/C=C/C(=O)OC)NC(=O)c2cncn2C)c1=O` [(S,E)-methyl-7-(1-(2-(2-ethylbutylamino)-2-oxoethyl)-2-oxo-1,2-dihydro-pyridin-3-ylamino)-6-(1-methyl-1H-imidazole-5-carboxamido)-7-oxohept-2-enoate], for which the “dose sufficient to achieve a therapeutic effective drug concentration” value on TG2 (human) lay within 20 to 50 mg.

Consider `CCC(CC)CNC(=O)Cn1cccc(NC(=O)[C@H](CC/C=C/C(=O)OC)NC(=O)c2cncn2C)c1=O` [compound of formula (I), (S,E)-methyl-7-(1-(2-(2-ethylbutylamino)-2-oxoethyl)-2-oxo-1,2-dihydro-pyridin-3-ylamino)-6-(1-methyl-1H-imidazole-5-carboxamido)-7-oxohept-2-enoate], for which the “increase of drug concentration with dose” value in data set [1] (dose range 10-100 mg, formulation) is reported as “dose-proportionally”. Besides, in data set [1] (human, plasma, oral daily dose 10, 20, 50, 100 mg for 7 days, hard gelatine capsule of example 2, read-out: tmax (maximum of plasma drug level after administration)), the Tmax was approximately 1 h. Further, the “side effects related to potential off-target actions” value in data set [2] is “not observed”. In data set [3], the “saturation solubility at pH=6.8 (duodenum) compared with pH~1” value is on record as “much lower”. Further, in data set [4], the “drug concentration normalized to body weight versus animal studies with suspension” value is on record as “remarkably higher”. Further, the “activity of intestinal TG2” value in data set [5] (TG2 activated by poly(I:C)) is recorded as “reduced the activity of intestinal TG2 to normal levels”. The intestinal inflammation result in data set [5] was “subdued intestinal inflammation”. In data set [5], the safety of administration result was “safe”. Moreover, the “drug level in vivo compared with in vitro TG2 inhibition” value on TG2 (dose of 10 mg) is listed as “half maximal inhibition (IC50) of TG2 is already achieved”; on TG2 (dose of 50 mg of the new developed formulation), “exceeding the IC90”. Moreover, the “effect of gluten on VH:CrD (mucosal deterioration)” value in data set [6] (10 mg dose, baseline to week 6) is “prevented mucosal deterioration to a lesser degree”. In data set [6] (10 mg, 50 mg and 100 mg groups, increase = better quality of life), the “CDQ scores, change from baseline to week 6” value is given as “increased”. Further, the “effect of gluten on VH:CrD (villus height-to-crypt depth ratio)” value is “almost completely prevented the deleterious effect of gluten on VH:CrD” in data set [6] (daily dose 50 mg, baseline to week 6) and “almost completely prevented the deleterious effect of gluten on VH:CrD” in data set [6] (daily dose 100 mg, baseline to week 6). Moreover, the “gluten-induced symptoms and quality of life” value in data set [6] (hard gelatine capsule formulation of example 2) is recorded as “significantly improved”. The “safety profile (frequency and severity of adverse events)” value in data set [6] (hard gelatine capsule formulation of example 2, 6 weeks) is listed as “comparable to placebo”. Besides, the intestinal mucosal injury entry in data set [6] (hard gelatine capsule formulation of example 2, moderate dose of daily gluten) is “effectively prevented intestinal mucosal injury”. Also, the solubility in data set [7] (FaSSIF (acceptor medium), FaSSIF, phosphate buffer pH 6.5, read-out: solubility in the acceptor medium) was 200 µg/mL; in data set [7] (FaSSIF medium, pH 6.5, fassif, thermodynamic from solid, pH-value of 6.5, read-out: saturation solubility of the pure drug), 180 µg/mL; in data set [7] (artificial gastric juice, sober state (donor medium), simulated gastric fluid, 34.2 mM NaCl in 0.1 HCl, read-out: solubility in the donor medium), 4400 µg/mL.
